The text below walks through data of paper PMC9640990 (Frontiers in Pharmacology, 2022).

One may read the IC50 as the midpoint of a concentration-inhibition curve.

Like-named read-outs stand apart in the source and are kept apart here.

The target in one series is T1, hOAT1 (Homo sapiens, UniProt Q4U2R8).
T1 construct: host or cells: MDCK
T1 sequence (Q4U2R8 1-563): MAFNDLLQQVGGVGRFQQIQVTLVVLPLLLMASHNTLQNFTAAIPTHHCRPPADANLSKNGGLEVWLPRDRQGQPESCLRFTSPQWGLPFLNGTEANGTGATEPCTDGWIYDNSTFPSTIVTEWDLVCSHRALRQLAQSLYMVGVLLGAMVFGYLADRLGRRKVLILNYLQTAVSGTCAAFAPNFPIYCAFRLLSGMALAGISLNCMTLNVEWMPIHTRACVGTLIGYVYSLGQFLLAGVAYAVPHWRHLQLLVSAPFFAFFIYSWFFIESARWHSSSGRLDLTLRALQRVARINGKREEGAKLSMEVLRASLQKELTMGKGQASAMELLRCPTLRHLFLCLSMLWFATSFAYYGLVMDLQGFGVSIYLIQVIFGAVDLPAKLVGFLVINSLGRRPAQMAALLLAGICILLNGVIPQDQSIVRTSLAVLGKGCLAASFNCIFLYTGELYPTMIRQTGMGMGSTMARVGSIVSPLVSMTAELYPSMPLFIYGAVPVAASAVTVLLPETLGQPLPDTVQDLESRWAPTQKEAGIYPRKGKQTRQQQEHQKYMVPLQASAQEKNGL
Description: Inhibition of hOAT1-mediated uptake of 14C-PAH in hOAT1-MDCK cells. In kind it is cell-based.

In a further series the target is T2, hBCRP (Homo sapiens, UniProt Q9UNQ0).
T2 construct: host or cells: MDCK
T2 sequence (Q9UNQ0 1-655): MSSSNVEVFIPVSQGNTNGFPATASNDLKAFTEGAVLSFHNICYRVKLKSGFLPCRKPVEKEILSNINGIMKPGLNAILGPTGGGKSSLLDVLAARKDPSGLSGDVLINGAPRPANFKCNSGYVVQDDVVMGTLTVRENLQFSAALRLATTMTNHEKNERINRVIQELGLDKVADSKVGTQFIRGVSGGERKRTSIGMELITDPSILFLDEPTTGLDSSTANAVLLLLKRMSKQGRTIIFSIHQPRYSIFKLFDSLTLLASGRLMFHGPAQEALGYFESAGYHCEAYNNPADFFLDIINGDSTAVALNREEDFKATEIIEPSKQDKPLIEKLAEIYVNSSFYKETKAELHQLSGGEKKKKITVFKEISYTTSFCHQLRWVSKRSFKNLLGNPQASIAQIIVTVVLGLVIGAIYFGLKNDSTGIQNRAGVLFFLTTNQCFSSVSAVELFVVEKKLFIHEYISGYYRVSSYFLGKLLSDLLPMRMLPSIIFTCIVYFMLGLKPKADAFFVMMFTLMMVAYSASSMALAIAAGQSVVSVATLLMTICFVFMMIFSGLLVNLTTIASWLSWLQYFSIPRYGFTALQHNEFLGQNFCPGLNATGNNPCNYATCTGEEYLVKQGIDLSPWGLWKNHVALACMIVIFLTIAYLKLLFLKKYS
Briefly: hBCRP-mediated efflux of lucifer yellow in hBCRP-MDCK cells. The series is classed as cell-based. The note with it: for efflux of BCRP-mediated lucifer yellow: concentration range 0.3 to 30 µM; for inhibitory effect on BCRP activity: hBCRP-MDCK cells, co-incubation 0.3 to 30 µM.

The nature of series [1]: Tissue distribution-based herb-drug interaction study in rats (CIP i.v., PCE i.g.). The series is classed as in vivo, Sprague-Dawley rats.
The next series deals with hOAT3 (Homo sapiens, UniProt Q8TCC7). Description: Inhibition of hOAT3-mediated uptake of 3H-ES in hOAT3-MDCK cells. The series is classed as cell-based. The text has this:
Considering the relative exposure characteristics, GA and PCA were selected as PK-marker and Q-marker components of PCE in previous studies ([Ma et al., 2015]; [Ma et al., 2016]; [Li et al., 2021b]). In this study, we investigated the concentration-dependent inhibitions of GA and PCA on multiple transporters, including OAT1, OAT3, OCT2, MDR1, and BCRP. Stably expressing cell lines of hOAT1-MDCK, hOAT3-MDCK, hOCT2-S2, hMDR1-MDCK, hBCRP-MDCK, and their mock cells were obtained from Japan Fuji Biomedical Co., Ltd. The cells were maintained in DMEM (Sigma) supplemented with 10% FCS, 1% non-essential amino acids (Sigma), and 2% L-glutamine. The medium for the Transwell® plates (Corning Costar, Cambridge, MA, United States) was supplemented with 0.1% gentamicin. Membrane filters were placed in a 12 mm well with 1.5 and 0.5 ml of culture medium in the basolateral and apical compartments, respectively. Cells were cultured at 37°C in an atmosphere of 5% CO2. The inhibition experiments were adapted from previous methods with minor modifications ([Li et al., 2021a]; [2021b]).
Briefly, the hOAT1-MDCK, hOAT3-MDCK, and hOCT2-S2 cells were trypsinized and suspended in the culture medium to provide a density of 1.5 × 10^5 cells/ml. After incubating for 48 h, the cells were washed twice with preheated DPBS and then pre-incubated with DPBS for 10 min at 37°C. 500 µl of DPBS containing probe substrates was added to initiate the uptake in the presence or absence of GA, PCA or positive inhibitors. The hMDR1-MDCK and hBCRP-MDCK cells were suspended at a density of 4.0 × 10^5 cells/ml. After cultivation for 7 days, cells were washed twice and equilibrated for 30 min at 37°C with the pre-warmed HBSS buffer. […] The radioactive intensity of ^14C-PAH, ^3H-ES, and ^14C-TEA was measured using a Tri-Carb 2910TR scintillator (PerkinElmer, United States). Fluorescence was measured at 485 nm (excitation) and 546 nm (emission) for rhodamine 123, and 425 nm (excitation) and 528 nm (emission) for lucifer yellow. IC50 values were determined by employing GraphPad Prism 9.

The target of the next series is T3, hMDR1 (Homo sapiens, UniProt P08183).
T3 construct: host or cells: MDCK
Description: hMDR1-mediated efflux of rhodamine 123 in hMDR1-MDCK cells. In kind it is cell-based. The note with it: for efflux of MDR1-mediated rhodamine 123: concentration range 0.3 to 30 µM; for inhibitory effect on MDR1 activity: hMDR1-MDCK cells, co-incubation 0.3 to 30 µM.

T3 sequence (P08183 whole entry): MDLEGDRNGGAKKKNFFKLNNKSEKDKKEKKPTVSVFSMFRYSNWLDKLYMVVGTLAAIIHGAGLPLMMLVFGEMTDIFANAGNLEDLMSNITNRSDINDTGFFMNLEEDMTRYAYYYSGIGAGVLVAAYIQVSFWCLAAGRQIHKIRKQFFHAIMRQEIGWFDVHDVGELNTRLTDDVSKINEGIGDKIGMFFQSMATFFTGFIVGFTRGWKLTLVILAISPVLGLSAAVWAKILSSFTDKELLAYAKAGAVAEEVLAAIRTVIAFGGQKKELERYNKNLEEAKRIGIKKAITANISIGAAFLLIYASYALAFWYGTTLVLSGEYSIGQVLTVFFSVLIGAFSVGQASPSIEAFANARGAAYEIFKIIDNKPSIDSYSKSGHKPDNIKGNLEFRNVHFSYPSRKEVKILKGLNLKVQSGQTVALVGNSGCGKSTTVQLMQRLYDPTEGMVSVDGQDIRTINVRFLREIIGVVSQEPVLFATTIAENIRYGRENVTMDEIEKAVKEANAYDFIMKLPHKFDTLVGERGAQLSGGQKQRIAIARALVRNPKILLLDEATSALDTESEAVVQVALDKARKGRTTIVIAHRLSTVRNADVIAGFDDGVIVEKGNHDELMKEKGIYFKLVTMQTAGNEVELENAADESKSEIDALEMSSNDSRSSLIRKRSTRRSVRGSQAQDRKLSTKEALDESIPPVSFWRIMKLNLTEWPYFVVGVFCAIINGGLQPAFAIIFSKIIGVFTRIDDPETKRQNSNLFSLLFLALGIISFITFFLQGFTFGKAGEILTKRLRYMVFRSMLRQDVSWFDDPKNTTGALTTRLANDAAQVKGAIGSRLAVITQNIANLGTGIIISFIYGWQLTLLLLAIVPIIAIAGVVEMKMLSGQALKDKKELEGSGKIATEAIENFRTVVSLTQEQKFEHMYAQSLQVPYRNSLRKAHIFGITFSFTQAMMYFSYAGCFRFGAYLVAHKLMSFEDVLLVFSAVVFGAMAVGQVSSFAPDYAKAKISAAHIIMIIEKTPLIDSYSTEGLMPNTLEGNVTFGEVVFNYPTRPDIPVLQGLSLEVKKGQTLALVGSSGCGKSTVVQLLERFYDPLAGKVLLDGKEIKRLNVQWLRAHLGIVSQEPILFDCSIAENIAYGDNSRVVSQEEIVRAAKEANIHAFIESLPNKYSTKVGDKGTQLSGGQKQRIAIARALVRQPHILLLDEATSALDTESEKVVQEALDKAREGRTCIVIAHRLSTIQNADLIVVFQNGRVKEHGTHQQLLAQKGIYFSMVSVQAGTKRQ
hOAT3, sequence (Q8TCC7 whole entry): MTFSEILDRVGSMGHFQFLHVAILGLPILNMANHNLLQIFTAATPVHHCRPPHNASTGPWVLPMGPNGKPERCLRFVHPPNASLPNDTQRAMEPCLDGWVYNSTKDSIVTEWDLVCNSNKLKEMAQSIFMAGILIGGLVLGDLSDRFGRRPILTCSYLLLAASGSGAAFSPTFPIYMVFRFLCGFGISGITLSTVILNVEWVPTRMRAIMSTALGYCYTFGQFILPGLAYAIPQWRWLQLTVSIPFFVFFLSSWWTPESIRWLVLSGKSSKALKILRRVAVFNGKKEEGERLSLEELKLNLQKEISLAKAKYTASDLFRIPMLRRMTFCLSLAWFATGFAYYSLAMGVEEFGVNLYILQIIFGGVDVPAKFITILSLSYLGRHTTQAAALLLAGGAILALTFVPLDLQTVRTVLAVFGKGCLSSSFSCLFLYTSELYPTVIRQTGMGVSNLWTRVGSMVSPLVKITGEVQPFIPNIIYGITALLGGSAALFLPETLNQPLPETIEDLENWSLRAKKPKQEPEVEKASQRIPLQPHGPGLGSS
Description for hBCRP: (§1) Briefly, the hOAT1-MDCK, hOAT3-MDCK, and hOCT2-S2 cells were trypsinized and suspended in the culture medium to provide a density of 1.5 × 10^5 cells/ml. […] After cultivation for 7 days, cells were washed twice and equilibrated for 30 min at 37°C with the pre-warmed HBSS buffer. […] The content of DMSO was below 1% and constant in all inhibition experiments. All experiments were performed in triplicate. The cell lysate and 3.0 ml of aquasol-2 scintillation fluid were put into a scintillation flask. […] IC50 values were determined by employing GraphPad Prism 9.
Description for hOAT1: as §1

`O=C(O)c1cc(O)c(O)c(O)c1` [GA, Gallic acid] had a concentration for half-maximal inhibition (IC50) on hOAT1 of 8.01 µM. Also, on hBCRP, the “efflux of BCRP-mediated lucifer yellow” value was “concentration-dependent increase” and the “inhibitory effect on BCRP activity” value is “no inhibitory effect”. The “order of C max in tissues” value in series [1] (CIP + PCE group (PK-marker)) is given as “SVG > prostate > kidney > lung > plasma”. Moreover, the “order of C max in tissues” value in series [1] (PCE group) is “SVG > prostate > kidney > plasma > testis”. Also, the “order of AUC 0-t in tissues” value in series [1] (intragastric PCE in the absence and presence of CIP) is “SVG > prostate > kidney > testis > plasma”. The “change of C max by CIP” value in series [1] (kidney and heart, p < 0.05) was “decreased”. The same molecule returned an IC50 at hOAT3 of 62.3 µM. At hMDR1, the “efflux of MDR1-mediated rhodamine 123” value was “concentration-dependent increase” and the “inhibitory effect on MDR1 activity” value is reported as “no inhibitory effect”.

Consider `O=C(O)c1ccc(O)c(O)c1` [PCA, protocatechuic acid], for which the IC50 on hOAT1 (hOAT1-MDCK cells, 14C-PAH 5 µM) is 29.7 µM. Besides, at hBCRP, the “efflux of BCRP-mediated lucifer yellow” value is “concentration-dependent increase” and the “inhibitory effect on BCRP activity” value is “no inhibitory effect”. In addition, in series [1] (CIP + PCE group), the “order of both AUC 0-t and C max in tissues” value is on record as “prostate > SVG > kidney > testis > plasma”. In addition, the “order of both AUC 0-t and C max in tissues” value in series [1] (PCE group) is given as “SVG > kidney > prostate > testis > spleen”. Besides, the “change of K p by CIP” value in series [1] (each tissue, p > 0.05) is given as “did not significantly alter”. Also, the “change of AUC 0-t by CIP” value in series [1] (kidney, p < 0.05) is given as “decreased”. In addition, in series [1] (prostate, p < 0.05), the “change of C max by CIP” value was “significantly increased”. The half-maximal inhibitory concentration (IC50) on hOAT3 (hOAT3-MDCK cells, 3H-ES 0.05 µM, read-out: IC50, hOAT3) was determined as 152 µM. In addition, at hMDR1, the “efflux of MDR1-mediated rhodamine 123” value is “concentration-dependent increase” and the “inhibitory effect on MDR1 activity” value is “no inhibitory effect”.
